Legend:
[1] = test system: Phakopsora pachyrhizi; assay: Phakopsora pachyrhizi test on soybean, preventive, greenhouse; assay type: in vivo; settings: preventive spray on soybean, inoculated one day after treatment, read-out: control (efficacy, disease severity) compared to the untreated check
Procedure, shortened: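 Preventive protocol: plants inoculated with a 2×10^5 P. pachyrhizi conidial suspension one day after spray application at the stated rate, then incubated at 22-24 °C and 80-90% RH. Compound was applied from 2% DMSO/acetone diluted in emulsified water.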

[2] = test system: Pyricularia oryzae; assay: microbe, parasite or virus in culture; assay type: cell-based; settings: 168 h, read-out: control compared to the untreated check
[3] = test system: Phytophthora infestans; assay: whole plant or invertebrate; assay type: in vivo, Phytophthora infestans on tomato; settings: in Solanum lycopersicum, read-out: control (efficacy, disease severity) compared to the untreated check
[4] = test system: Botrytis cinerea; assay: Botrytis cinerea test on tomato, preventive, greenhouse; assay type: in vivo; settings: preventive spray on bean/chili plants (heading: tomato), inoculated one day after treatment, read-out: control (efficacy, disease severity) compared to the untreated check
[5] = test system: Phytophthora infestans; assay: microbe, parasite or virus in culture; assay type: cell-based; settings: 168 h, read-out: control compared to the untreated check
[6] = test system: Venturia Inequalis; assay: Venturia inequalis (VENTIN) spore growth inhibition in liquid medium, 96-well microtiter plate, OD 600; assay type: cell-based; settings: spore suspension in PDB liquid medium, 18° C., 15-18 days, OD at 600, read-out: control compared to the untreated check
Experimental: Potato dextrose (PDB) liquid medium containing a VENTIN (10^5 spores/ml) spore suspension was prepared. For the inhibition assay, each test compound was solved in dimethyl sulfoxide. 100 μl of the test compound in media-solution was added to a 96-well microtiter plate, consequently, the same volume (100 μl) of spore suspension was added to the well making the final test concentrations and the treated plate was incubated at 18° C. for 15-18 days. The growth inhibition was evaluated by measuring the OD at 600. Percent inhibition was calculated with the below formula: […]

[7] = test system: Colletotrichum capsici; assay: Colletotrichum capsici (anthracnose) mycelial radial growth on potato dextrose agar; assay type: cell-based; settings: Colletotrichum truncatum, 168 h, 25° C., seven days, read-out: control compared to the untreated check
Procedure, shortened: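 Compounds in 0.3% DMSO were mixed into potato dextrose agar, and each plate was seeded with a 5 mm mycelial disc from an actively growing culture. Plates were incubated at 25° C and 60% relative humidity for seven days. Radial growth was compared with untreated control.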

[8] = test system: Botrytis cinerea; assay: Botrytis cinerea (gray mold) mycelial radial growth on potato dextrose agar; assay type: cell-based; settings: 168 h, 22° C., seven days, read-out: control compared to the untreated check
Experimental: The compounds were dissolved in 0.3% dimethyl sulfoxide and then added to potato dextrose agar medium just prior to dispensing it into petri dishes. 5 mL medium, with the compound in the desired concentration, was dispensed into 60 mm sterile petri-plates. After solidification, each plate was seeded with a 5 mm size mycelial disc taken from the periphery of an actively growing virulent culture plate. The plates were incubated in growth chambers at 22° C. temperature and 90% relative humidity for seven days and the radial growth was measured and compared to the one of the untreated control.

[9] = test system: Parastagonospora nodorum; assay: Parastagonospora nodorum (PARANO) spore growth inhibition in liquid medium, 96-well microtiter plate, OD 600; assay type: cell-based; settings: spore suspension in PDB liquid medium, 18° C., 5-6 days, OD at 600, read-out: control compared to the untreated check
Procedure, shortened: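 Read-out is percent growth inhibition from OD at 600 after 5-6 days at 18° C. Compounds, dissolved in DMSO, were diluted in potato dextrose broth and combined in equal volume with a 10^5 spores/ml suspension of PARANO.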

[10] = test system: Botrytis cinerea; assay: Botrytis cinerea liq. (BOTRCI) spore growth inhibition in liquid medium, 96-well microtiter plate, OD 405 nm; assay type: cell-based; settings: spore suspension in YBA liquid medium, 22° C., 5-6 days, OD at 405 nm, read-out: control compared to the untreated check
Experimental: Yeast bacterial peptone and sodium acetate (YBA) liquid medium containing a BOTRCI (10^4 spores/ml) spore suspension was prepared. For the inhibition assay, each test compound was solved in dimethyl sulfoxide. 100 μl of the test compound in media-solution was added to a 96-well microtiter plate, consequently, the same volume (100 μl) of spore suspension was added to the well making the final test concentrations and the plate was incubated at 22° C. for 5-6 days. The growth inhibition was evaluated by measuring the OD at 405 nm. Percent inhibition was calculated with the below formula:
Where T=treatment, C=control, and B=blank

Cc1nc2c(ccn2C)cc1C(=O)NC(C)(C)Cc1ccccc1F [Compound 38, N-(1-(2-fluorophenyl)-2-methylpropan-2-yl)-1,6-dimethyl-1H-pyrrolo[2,3-b]pyridine-5-carboxamide]
≥ 70%: pest or weed control at 500 ppm [1] | inhibition of growth at 300 ppm [2] | pest or weed control at 500 ppm [3] | pest or weed control at 500 ppm [4]

Cn1ccc2cc(C(=O)NC3(Cc4ccccc4)CC3)cnc21 [Compound 39, N-(1-benzylcyclopropyl)-1-methyl-1H-pyrrolo[2,3-b]pyridine-5-carboxamide]
≥ 70%: inhibition of growth at 300 ppm [5] | pest or weed control at 500 ppm [1] | inhibition of growth at 300 ppm [2] | inhibition of growth at 300 ppm [6] | inhibition of growth at 300 ppm [7] | pest or weed control at 500 ppm [3]

Cc1nc2c(ccn2C)cc1C(=O)NC(C)(C)C(C)c1ccccc1Cl (stereo not drawn) [Compound 40, N-(3-(2-chlorophenyl)-2-methylbutan-2-yl)-1,6-dimethyl-1H-pyrrolo[2,3-b]pyridine-5-carboxamide]
≥ 70%: pest or weed control at 500 ppm [1] | inhibition of growth at 300 ppm [8] | inhibition of growth at 300 ppm [2] | inhibition of growth at 300 ppm [9] | pest or weed control at 500 ppm [3]

CC(C)(Cc1ccc(F)cc1)NC(=O)c1cnc2[nH]ccc2c1 [Compound 41, N-(1-(4-fluorophenyl)-2-methylpropan-2-yl)-1H-pyrrolo[2,3-b] pyridine-5-carboxamide]
≥ 70%: inhibition of growth at 300 ppm [5] | pest or weed control at 500 ppm [1] | inhibition of growth at 300 ppm [6] | pest or weed control at 500 ppm [3] | pest or weed control at 500 ppm [4]

Cn1ccc2cc(C(=O)NC(C)(C)Cc3ccc(Cl)c(F)c3)cnc21 [Compound 42, N-(1-(4-chloro-3-fluorophenyl)-2-methylpropan-2-yl)-1-methyl-1H-pyrrolo[2,3-b]pyridine-5-carboxamide]
≥ 70%: pest or weed control at 500 ppm [1] | inhibition of growth at 300 ppm [2] | inhibition of growth at 300 ppm [9] | pest or weed control at 500 ppm [3]

Cn1ccc2cc(C(=O)NC(C)(C)Cc3cccc(Br)c3)cnc21 [Compound 48, N-(1-(3-bromophenyl)-2-methylpropan-2-yl)-1-methyl-1H-pyrrolo[2,3-b]pyridine-5-carboxamide]
≥ 70%: pest or weed control at 500 ppm [1] | inhibition of growth at 300 ppm [2] | inhibition of growth at 300 ppm [9] | pest or weed control at 500 ppm [3]

COc1ccccc1CC(C)(C)NC(=O)c1cnc2c(ccn2C)c1 [Compound 49, N-(1-(2-methoxyphenyl)-2-methylpropan-2-yl)-1-methyl-1H-pyrrolo[2,3-b]pyridine-5-carboxamide]
≥ 70%: pest or weed control at 500 ppm [1] | inhibition of growth at 300 ppm [6]

CC(C)CC(C)(Cc1ccccc1)NC(=O)c1cnc2c(c1)c(Cl)cn2C (stereo not drawn) [Compound 52, 3-chloro-N-(2,4-dimethyl-1-phenylpentan-2-yl)-1-methyl-1H-pyrrolo[2,3-b]pyridine-5-carboxamide]
≥ 70%: pest or weed control at 500 ppm [1] | inhibition of growth at 300 ppm [6] | pest or weed control at 500 ppm [3]

Cn1cc(Cl)c2cc(C(=O)NC(C)(C)Cc3ccccc3)cnc21 [Compound 53, 3-chloro-1-methyl-N-(2-methyl-1-phenylpropan-2-yl)-1H-pyrrolo[2,3-b] pyridine-5-carboxamide]
≥ 70%: pest or weed control at 500 ppm [1] | inhibition of growth at 300 ppm [2] | inhibition of growth at 300 ppm [6] | pest or weed control at 500 ppm [3]

Cn1cc(F)c2cc(C(=O)NC(C)(C)Cc3ccccc3F)cnc21 [Compound 68, 3-fluoro-N-(1-(2-fluorophenyl)-2-methylpropan-2-yl)-1-methyl-1H-pyrrolo[2,3-b]pyridine-5-carboxamide]
≥ 70%: pest or weed control at 500 ppm [1] | inhibition of growth at 300 ppm [6] | pest or weed control at 500 ppm [3]

Cn1cc(F)c2cc(C(=O)NC(C)(C)Cc3ccc(Cl)c(F)c3)cnc21 [Compound 69, N-(1-(4-chloro-3-fluorophenyl)-2-methylpropan-2-yl)-3-fluoro-1-methyl-1H-pyrrolo[2,3-b]pyridine-5-carboxamide]
≥ 70%: inhibition of growth at 300 ppm [2] | inhibition of growth at 300 ppm [6] | pest or weed control at 500 ppm [3]

CC(c1ccccc1Cl)C(C)(C)NC(=O)c1cnc2c(c1)c(F)cn2C (stereo not drawn) [Compound 71, N-(3-(2-chlorophenyl)-2-methylbutan-2-yl)-3-fluoro-1-methyl-1H-pyrrolo[2,3-b]pyridine-5-carboxamide]
≥ 70%: pest or weed control at 500 ppm [1] | inhibition of growth at 300 ppm [2] | pest or weed control at 500 ppm [3]

Cn1ccc2cc(C(=O)NCC3(c4ccccc4)CC3)cnc21 [Compound 79, 1-methyl-N-((1-phenylcyclopropyl)methyl)-1H-pyrrolo [2,3-b]pyridine-5-carboxamide]
≥ 70%: inhibition of growth at 300 ppm [5] | inhibition of growth at 300 ppm [2] | inhibition of growth at 300 ppm [6] | inhibition of growth at 300 ppm [9] | pest or weed control at 500 ppm [3]

Cn1cc(Cl)c2cc(C(=O)NC(C)(C)Cc3ccccc3Cl)cnc21 [Compound 83, 3-chloro-N-(1-(2-chlorophenyl)-2-methylpropan-2-yl)-1-methyl-1H-pyrrolo[2,3-b]pyridine-5-carboxamide]
≥ 70%: pest or weed control at 500 ppm [1] | inhibition of growth at 300 ppm [2] | inhibition of growth at 300 ppm [6] | pest or weed control at 500 ppm [3] | pest or weed control at 500 ppm [4]

CC(C)CC(C)(Cc1ccccc1)NC(=O)c1cnc2[nH]c(=O)oc2c1 (stereo not drawn) [Compound 98, N-(2,4-dimethyl-1-phenylpentan-2-yl)-2-oxo-2,3-dihydrooxazolo[4,5-b] pyridine-6-carboxamide]
≥ 70%: inhibition of growth at 300 ppm [5] | inhibition of growth at 300 ppm [8] | inhibition of growth at 300 ppm [2] | inhibition of growth at 300 ppm [10] | pest or weed control at 500 ppm [4]

CC(C)(COC(=O)c1cccc(F)c1)NC(=O)c1cnc2c(c1)CCC2 [Compound 145, 2-(6,7-dihydro-5H-cyclopenta[b]pyridine-3-carboxamido)-2-methylpropyl 3-fluorobenzoate]
≥ 70%: pest or weed control at 500 ppm [3]

CC(C)(COC(=O)c1cccc(F)c1)NC(=O)c1cnc2[nH]ccc2c1 [Compound 146, 2-methyl-2-(1H-pyrrolo[2,3-b]pyridine-5-carboxamido)propyl 3-fluorobenzoate]
≥ 70%: inhibition of growth at 300 ppm [5] | pest or weed control at 500 ppm [1] | inhibition of growth at 300 ppm [6]

C=C(C)CC(C)(COc1ccccc1F)NC(=O)c1cnc2c(c1)CCC2 (stereo not drawn) [Compound 160, N-(1-(2-fluorophenoxy)-2,4-dimethylpent-4-en-2-yl)-6,7-dihydro-5H-cyclopenta[b]pyridine-3-carboxamide]
≥ 70%: inhibition of growth at 300 ppm [8] | inhibition of growth at 300 ppm [6] | inhibition of growth at 300 ppm [9] | inhibition of growth at 300 ppm [7]

CC(C)(COC(=O)c1ccccc1C(F)(F)F)NC(=O)c1cnc2ccsc2c1 [Compound 161, 2-methyl-2-(thieno[3,2-b]pyridine-6-carboxamido)propyl 2-(trifluoromethyl)benzoate]
≥ 70%: inhibition of growth at 300 ppm [2] | inhibition of growth at 300 ppm [6]

Cn1ccc2cc(C(=O)NC(C)(C)COC(=O)c3ccccc3C(F)(F)F)cnc21 [Compound 167, 2-methyl-2-(1-methyl-1H-pyrrolo[2,3-b]pyridine-5-carboxamido)propyl 2-(trifluoromethyl)benzoate]
≥ 70%: inhibition of growth at 300 ppm [6]
